Results taken from ChEMBL document CHEMBL4371023, “Synthesis of new betulinic acid/betulin-derived dimers and hybrids with potent antimalarial and antiviral activities” (Bioorg Med Chem, 2019).

How the values were obtained:
Human betaherpesvirus 5 [1] = assay: Antiviral activity against recombinant HCMV AD169 expressing GFP infected in human foreskin fibroblasts measured after 7 days by GFP-based multi-round replication assay; type: functional, organism-based; settings: Human betaherpesvirus 5, strain AD169, 168 h
Plasmodium falciparum [2] = assay: Antimalarial activity against ring stage Plasmodium falciparum 3D7 infected in type A-positive human erythrocytes after 72 hrs by SYBR green 1 dye-based fluorescence assay; type: functional, organism-based; settings: 3D7, 72 h
Plasmodium falciparum [3] = assay: Potency index, ratio of betulin EC50 to compound EC50 for antimalarial activity against ring stage Plasmodium falciparum 3D7 infected in type A-positive human erythrocytes; type: functional
Human betaherpesvirus 5 [4] = assay: Potency index, ratio of betulinic acid EC50 to compound EC50 for antiviral activity against recombinant HCMV AD169 expressing GFP infected in human foreskin fibroblasts; type: functional, strain AD169
Human betaherpesvirus 5 [5] = assay: Potency index, ratio of artesunic acid EC50 to compound EC50 for antiviral activity against recombinant HCMV AD169 expressing GFP infected in human foreskin fibroblasts; type: functional, strain AD169
Plasmodium falciparum [6] = assay: Potency index, ratio of betulinic acid EC50 to compound EC50 for antimalarial activity against ring stage Plasmodium falciparum 3D7 infected in type A-positive human erythrocytes; type: functional

Question: What does the source list for `C=C(C)[C@@H]1CC[C@]2(COC(=O)CCC(=O)O[C@@H]3O[C@@H]4O[C@@]5(C)CC[C@H]6[C@H](C)CC[C@@H]([C@H]3C)[C@@]46OO5)CC[C@]3(C)[C@H](CC[C@@H]4[C@@]5(C)CC[C@H](O)C(C)(C)[C@@H]5CC[C@]43C)[C@@H]12`?
Answer: EC50 (Human betaherpesvirus 5 [1]): 880 nM; EC50 (Plasmodium falciparum [2]): 255 nM; Ratio EC50 (Plasmodium falciparum [3]): 20

Question: How did the EC50 (Human betaherpesvirus 5 [1]) turn out when `C=C(C)[C@@H]1CC[C@]2(C(=O)O)CC[C@]3(C)[C@H](CC[C@@H]4[C@@]5(C)CC[C@H](OC(=O)CCC(=O)O[C@@H]6O[C@@H]7O[C@@]8(C)CC[C@H]9[C@H](C)CC[C@@H]([C@H]6C)[C@@]79OO8)C(C)(C)[C@@H]5CC[C@]43C)[C@@H]12` was run?
Answer: 240 nM

Question: What about the EC50 (Plasmodium falciparum [2]) of the same compound?
Answer: 85 nM

Question: What about the “Ratio EC50” value (Human betaherpesvirus 5 [4]) of the same compound?
Answer: 15

Question: What about the “Ratio EC50” value (Human betaherpesvirus 5 [5]) of the same compound?
Answer: 23

Question: And the “Ratio EC50” value (Plasmodium falciparum [6])?
Answer: 16

Question: What does the source list for `C[C@H]1[C@@H](O)O[C@@H]2O[C@@]3(C)CC[C@H]4[C@H](C)CC[C@@H]1[C@@]24OO3` [ARTENIMOL]?
Answer: EC50 (Human betaherpesvirus 5 [1]): > 10000 nM; EC50 (Plasmodium falciparum [2]): 2.6 nM

Question: With `C=C(C)[C@@H]1CC[C@]2(C(=O)O)CC[C@]3(C)[C@H](CC[C@@H]4[C@@]5(C)CC[C@H](O)C(C)(C)[C@@H]5CC[C@]43C)[C@@H]12` [BETULINIC ACID] as the compound, how does the EC50 (Human betaherpesvirus 5 [1]) read?
Answer: 3620 nM

Question: And the EC50 (Plasmodium falciparum [2])?
Answer: 1420 nM

Question: How did the EC50 (Human betaherpesvirus 5 [1]) turn out when `C=C(C)[C@@H]1CC[C@]2(CO)CC[C@]3(C)[C@H](CC[C@@H]4[C@@]5(C)CC[C@H](O)C(C)(C)[C@@H]5CC[C@]43C)[C@@H]12` [BETULIN] was run?
Answer: 1990 nM

Question: And the EC50 (Plasmodium falciparum [2])?
Answer: 3940 nM

Question: How did the EC50 (Plasmodium falciparum [2]) turn out when `CCN(CC)CCCC(C)Nc1ccnc2cc(Cl)ccc12` (stereo not given) [CHLOROQUINE PHOSPHATE] was run?
Answer: 8.3 nM
